In US20230085307A1, “PYRIDAZINONE COMPOUND AND HERBICIDE” (NISSAN CHEMICAL CORPORATION, priority 2019, published 2023):

Experiments:
late watergrass = test: Test Example 1: herbicidal activity, application before weed generation under submerged conditions (Table 16, symbol A); assay type: in vivo, late watergrass (Echinochloa oryzicola); details: 320 g/ha applied herbicide
Summary of the method: (§1)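 Emulsion formulation, water-diluted to set dose, was put onto the flooded surface (4 cm depth, alluvial soil) the same day weeds were sown and 2.5-leaf rice transplanted. After 3 weeks at 25-30 °C under glass, each species was rated 0 (≤5% kill) to 5 (≥90% kill).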

Japanese bulrush = test: Test Example 1: herbicidal activity, application before weed generation under submerged conditions (Table 16, symbol B); assay type: in vivo, Japanese bulrush (Schoenoplectus juncoides); details: 320 g/ha applied herbicide
Summary of the method: as §1

oval-leafed pondweed [1] = test: Test Example 1: herbicidal activity, application before weed generation under submerged conditions (Table 16, symbol C); assay type: in vivo, oval-leafed pondweed (Monochoria vaginalis); details: 320 g/ha applied herbicide
Summary of the method: as §1

oval-leafed pondweed [2] = test: Test Example 2: herbicidal activity, application during weed generation under submerged conditions (Table 17, symbol C); assay type: in vivo, oval-leafed pondweed (Monochoria vaginalis); details: AAH 320 g/ha; application during weed generation, submerged conditions
Summary of the method: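 Effect on each weed is rated three weeks post-treatment, using the same scoring criteria as the preceding test. Plants grow from mixed-sown seed in flooded alluvial soil (4 cm water) at 25° C. to 30° C., and are treated at one to two leaves with diluted emulsion dropped onto the water.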

Chinese sprangletop = test: Test Example 3: herbicidal effect by foliage application, Wagner pot (Table 18, symbol D); assay type: in vivo, chinese sprangletop (Leptochloa chinensis); details: for herbicidal effect on D: Chinese sprangletop: amount of applied herbicide 320 g/ha
Summary of the method: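 Plants were sown in alluvial soil held under 0.1–0.5 cm standing water and grown 14 days in a greenhouse at 25–30 °C. An emulsifiable formulation, water-diluted to the set dose, was then sprayed onto the foliage, and effects were scored three weeks later using previously defined criteria.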

blackgrass = test: Test Example 4: herbicidal effect by soil treatment (Table 19, symbol J); assay type: in vivo, blackgrass (Alopecurus myosuroides); details: for J: blackgrass, herbicidal effect rating: amount of applied herbicide 320 g/ha
Summary of the method: (§2)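 Soil-surface application: an emulsion agent diluted with water to the predetermined dose is sprayed uniformly over seeds lying under roughly 1.5 cm of sterilized diluvial soil. Boxes stay in a greenhouse at 25° C. to 30° C. Three weeks later, each species is graded on previously defined criteria.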

windgrass = test: Test Example 4: herbicidal effect by soil treatment (Table 19, symbol L); assay type: in vivo, windgrass (Apera spica-venti); details: for L: windgrass, herbicidal effect rating: amount of applied herbicide 320 g/ha
Summary of the method: as §2

persian speedwell = test: Test Example 4: herbicidal effect by soil treatment (Table 19, symbol R); assay type: in vivo, Persian speedwell (Veronica persica); details: for R: persian speedwell, herbicidal effect rating: amount of applied herbicide 320 g/ha
Summary of the method: as §2

green foxtail = test: Test Example 5: herbicidal effect by foliage application, plastic box (Table 20, symbol G); assay type: in vivo, green foxtail (Setaria viridis); details: foliage application, 320 g/ha, evaluated three weeks after application
Summary of the method: (§3)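 Sow seeds spot-wise in sterilized diluvial soil; cover with ~1.5 cm soil. Grow 14 days in greenhouse, 25° C. to 30° C. Spray foliage with emulsion diluted to predetermined amount. Rate effect after 3 weeks.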

velvetleaf = test: Test Example 5: herbicidal effect by foliage application, plastic box (Table 20, symbol M); assay type: in vivo, velvetleaf (Abutilon theophrasti); details: foliage application, 320 g/ha, evaluated three weeks after application
Summary of the method: as §3

chickweed = test: Test Example 5: herbicidal effect by foliage application, plastic box (Table 20, symbol P); assay type: in vivo, common chickweed (Stellaria media); details: foliage application, 320 g/ha, evaluated three weeks after application
Summary of the method: as §3

| SMILES | Herbicidal effect on A: late watergrass (grade 0-5) (late watergrass) | Herbicidal effect on B: Japanese bulrush (grade 0-5) (Japanese bulrush) | Herbicidal effect on C: oval-leafed pondweed (grade 0-5) (oval-leafed pondweed [1]) | herbicidal effect rating, C: oval-leafed pondweed (oval-leafed pondweed [2]) | herbicidal effect on D (Chinese sprangletop), rating 0-5 (Chinese sprangletop; 320 g/ha) | herbicidal effect rating, J: blackgrass (blackgrass; 320 g/ha) | herbicidal effect rating, L: windgrass (windgrass; 320 g/ha) | herbicidal effect rating, R: persian speedwell (persian speedwell; 320 g/ha) | herbicidal effect on G: green foxtail (green foxtail) | herbicidal effect on M: velvetleaf (velvetleaf) | herbicidal effect on P: chickweed (chickweed) | herbicidal effect on D: Chinese sprangletop (Chinese sprangletop) | J: blackgrass, herbicidal effect rating (blackgrass) | L: windgrass, herbicidal effect rating (windgrass) | R: persian speedwell, herbicidal effect rating (persian speedwell) | herbicidal effect on G: green foxtail (criteria 0-5) (green foxtail) | herbicidal effect on M: velvetleaf (criteria 0-5) (velvetleaf) | herbicidal effect on P: chickweed (criteria 0-5) (chickweed) |
| --- | --- | --- | --- | --- | --- | --- | --- | --- | --- | --- | --- | --- | --- | --- | --- | --- | --- | --- |
| CCCC(=O)Oc1c(C)nn(C)c(=O)c1-c1c(-c2ccc(C(C)=NOC)cc2)sc2ccc(F)cc12 [2-080] | 5 (Herbicidal rate of 90% or more (almost completely withered)) | 5 (Herbicidal rate of 90% or more (almost completely withered)) | 4 (Herbicidal rate of 70% or more and less than 90%) | 4 (Herbicidal rate of 70% or more and less than 90%) | 5 (Herbicidal rate of 90% or more (almost completely withered)) | 1 (Herbicidal rate of 5% or more and less than 20%) | 2 (Herbicidal rate of 20% or more and less than 40%) | 5 (Herbicidal rate of 90% or more (almost completely withered)) | 4 (Herbicidal rate of 70% or more and less than 90%) | 5 (Herbicidal rate of 90% or more (almost completely withered)) | 5 (Herbicidal rate of 90% or more (almost completely withered)) |  |  |  |  |  |  |  |
| Cc1nn(C)c(=O)c(-c2c(-c3ccc(C(F)(F)F)cc3)sc3ccc(Cl)cc23)c1O [2-111] | 3 (Herbicidal rate of 40% or more and less than 70%) | 3 (Herbicidal rate of 40% or more and less than 70%) | 0 (Herbicidal rate of 5% or less (almost no effect)) | 0 (Herbicidal rate of 5% or less (almost no effect)) |  |  |  |  | 0 (Herbicidal rate of 5% or less (almost no effect)) | 3 (Herbicidal rate of 40% or more and less than 70%) | 5 (Herbicidal rate of 90% or more (almost completely withered)) | 2 (Herbicidal rate of 20% or more and less than 40%) | 5 (Herbicidal rate of 90% or more (almost completely withered)) | 5 (Herbicidal rate of 90% or more (almost completely withered)) | 5 (Herbicidal rate of 90% or more (almost completely withered)) |  |  |  |
| CCCC(=O)Oc1c(C)nn(C)c(=O)c1-c1c(-c2ccccc2OC)sc2ccc(C)cc12 [2-139] | 4 (Herbicidal rate of 70% or more and less than 90%) | 3 (Herbicidal rate of 40% or more and less than 70%) | 1 (Herbicidal rate of 5% or more and less than 20%) | 0 (Herbicidal rate of 5% or less (almost no effect)) |  |  |  |  | 3 (Herbicidal rate of 40% or more and less than 70%) | 3 (Herbicidal rate of 40% or more and less than 70%) | 5 (Herbicidal rate of 90% or more (almost completely withered)) | 0 (Herbicidal rate of 5% or less (almost no effect)) | 1 (Herbicidal rate of 5% or more and less than 20%) | 0 (Herbicidal rate of 5% or less (almost no effect)) | 4 (Herbicidal rate of 70% or more and less than 90%) |  |  |  |
| C=Cc1ccc2sc(-c3ccccc3OC)c(-c3c(O)c(C)nn(C)c3=O)c2c1 [2-185] | 0 (Herbicidal rate of 5% or less (almost no effect)) | 5 (Herbicidal rate of 90% or more (almost completely withered)) | 5 (Herbicidal rate of 90% or more (almost completely withered)) | 0 (Herbicidal rate of 5% or less (almost no effect)) |  |  |  |  |  |  |  | 0 (Herbicidal rate of 5% or less (almost no effect)) | 0 (Herbicidal rate of 5% or less (almost no effect)) | 0 (Herbicidal rate of 5% or less (almost no effect)) | 0 (Herbicidal rate of 5% or less (almost no effect)) | 3 (Herbicidal rate of 40% or more and less than 70%) | 5 (Herbicidal rate of 90% or more (almost completely withered)) | 5 (Herbicidal rate of 90% or more (almost completely withered)) |
| Cc1nn(C)c(=O)c(-c2c(-c3ccccc3)sc3ccc(F)cc23)c1O [2-197] | 3 (Herbicidal rate of 40% or more and less than 70%) | 3 (Herbicidal rate of 40% or more and less than 70%) | 3 (Herbicidal rate of 40% or more and less than 70%) | 4 (Herbicidal rate of 70% or more and less than 90%) |  |  |  |  |  |  |  | 5 (Herbicidal rate of 90% or more (almost completely withered)) | 3 (Herbicidal rate of 40% or more and less than 70%) | 1 (Herbicidal rate of 5% or more and less than 20%) | 3 (Herbicidal rate of 40% or more and less than 70%) | 5 (Herbicidal rate of 90% or more (almost completely withered)) | 5 (Herbicidal rate of 90% or more (almost completely withered)) | 5 (Herbicidal rate of 90% or more (almost completely withered)) |
| CCCC(=O)Oc1c(C)nn(C)c(=O)c1-c1c(-c2ccccc2)sc2ccc(F)cc12 [2-198] | 5 (Herbicidal rate of 90% or more (almost completely withered)) | 3 (Herbicidal rate of 40% or more and less than 70%) | 3 (Herbicidal rate of 40% or more and less than 70%) | 4 (Herbicidal rate of 70% or more and less than 90%) |  |  |  |  |  |  |  | 5 (Herbicidal rate of 90% or more (almost completely withered)) | 4 (Herbicidal rate of 70% or more and less than 90%) | 3 (Herbicidal rate of 40% or more and less than 70%) | 4 (Herbicidal rate of 70% or more and less than 90%) | 4 (Herbicidal rate of 70% or more and less than 90%) | 5 (Herbicidal rate of 90% or more (almost completely withered)) | 5 (Herbicidal rate of 90% or more (almost completely withered)) |
| Cc1nn(C)c(=O)c(-c2c(-c3ccccc3F)sc3ccc(F)cc23)c1O [2-199] | 1 (Herbicidal rate of 5% or more and less than 20%) | 3 (Herbicidal rate of 40% or more and less than 70%) | 2 (Herbicidal rate of 20% or more and less than 40%) | 0 (Herbicidal rate of 5% or less (almost no effect)) |  |  |  |  |  |  |  | 5 (Herbicidal rate of 90% or more (almost completely withered)) | 0 (Herbicidal rate of 5% or less (almost no effect)) | 0 (Herbicidal rate of 5% or less (almost no effect)) | 0 (Herbicidal rate of 5% or less (almost no effect)) | 5 (Herbicidal rate of 90% or more (almost completely withered)) | 5 (Herbicidal rate of 90% or more (almost completely withered)) | 5 (Herbicidal rate of 90% or more (almost completely withered)) |
